Data taken from patent publication US12486268B2 (TRANSNEURAL THERAPEUTICS, INC., priority 2022, dated 2025).
Where a name gives a salt, the structure may show the parent alone.

Biological target: T1, human serotonin 2A receptors (5-HT2AR) (Homo sapiens, UniProt P28223)
T1 construct: expressed in transfected cells; host or cells: HEK 293 cells
Assay: IP1 accumulation assay (HTRF)
Format: cell-based
Design: key to h5-HT2A EC50: A=<100; B=100 to 1000; C=>1000 to 10000; D=>10000; E=inactive
Details: HEK 293 cells expressing human 5-HT2AR; for Emax: HEK293, IP1 production, relative to 5-HT, read-out: h5-HT2A Emax; for h5-HT2A EC50 / EC50: IP1 production (proxy for Gq activation); for EC50: read-out: h5-HT2A EC50
Experimental: The functional activity of disclosed compounds is measured using an IP1 (inositol monophosphate) accumulation assay. The effects of disclosed compounds on IP1 production (a proxy for Gq activation) was measured in HEK 293 cells expressing human serotonin 2A receptors (5-HT2AR) using a Homogeneous Time Resolved Fluorescence (HTRF) assay. Standard protocols are followed. Briefly, a cell suspension and test compound/s is incubated in a standard buffer. Following incubation, the cells are lysed, and the fluorescence acceptor and donor are added. After incubation the fluorescence transfer is measured, and data is analyzed using GraphPad Prism to generate concentration response curves.

T1 sequence (P28223 whole entry): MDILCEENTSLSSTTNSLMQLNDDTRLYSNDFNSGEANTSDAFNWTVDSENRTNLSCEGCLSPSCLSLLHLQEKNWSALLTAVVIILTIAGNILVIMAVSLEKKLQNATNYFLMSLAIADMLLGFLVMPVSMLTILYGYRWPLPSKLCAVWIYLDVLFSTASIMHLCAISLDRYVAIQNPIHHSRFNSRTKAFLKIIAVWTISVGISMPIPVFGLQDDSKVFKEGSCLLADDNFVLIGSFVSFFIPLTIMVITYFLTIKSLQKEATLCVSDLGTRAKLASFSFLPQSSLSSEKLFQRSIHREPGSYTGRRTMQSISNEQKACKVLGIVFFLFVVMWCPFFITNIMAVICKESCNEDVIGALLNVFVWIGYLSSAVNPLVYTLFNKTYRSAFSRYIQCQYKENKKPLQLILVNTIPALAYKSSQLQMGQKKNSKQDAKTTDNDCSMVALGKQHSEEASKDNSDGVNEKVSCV

Row | Compound | Emax [%] | h5-HT2A EC50 | EC50 [µM]
1 | CC1C=C(c2c[nH]c3ncccc23)CN(CC(C)(F)F)C1 (single isomer, unassigned) [103 Isomer 1] | < 50 | E | –
2 | CC1C=C(c2c[nH]c3ncccc23)CN(CC(C)(F)F)C1 (single isomer, unassigned) [103 Isomer 2] | – | E | –
3 | CC1C=C(c2c[nH]c3ncccc23)CN(CC(F)(F)C(F)(F)F)C1 (single isomer, unassigned) [105 Isomer 1] | – | E | –
4 | CC1C=C(c2c[nH]c3ncccc23)CN(CC(F)(F)C(F)(F)F)C1 (single isomer, unassigned) [105 Isomer 2] | < 50 | E | –
5 | FC(F)(F)C1C=C(c2c[nH]c3ncccc23)CNC1 (stereo not drawn) [Compound 101, 3-(5-(trifluoromethyl)-1,2,5,6-tetrahydropyridin-3-yl)-1H-pyrrolo[2,3-b]pyridine] | 75 to 90 | – | 1 to 10
6 | CN1CC(c2c[nH]c3ncccc23)=CC(C(F)(F)F)C1 (stereo not drawn) [Compound 102, 3-(1-methyl-5-(trifluoromethyl)-1,2,5,6-tetrahydropyridin-3-yl)-1H-pyrrolo[2,3-b]pyridine] | – | – | > 10
7 | CN1CCC2CC2(c2c[nH]c3ncccc23)C1 (stereo not drawn) [Compound 106, 3-(3-methyl-3-azabicyclo[4.1.0]heptan-1-yl)-1H-pyrrolo[2,3-b]pyridine] | – | – | > 10
8 | CC1(C)C=C(c2c[nH]c3ncccc23)CNC1 [Compound 107, 3-(5,5-dimethyl-1,2,5,6-tetrahydropyridin-3-yl)-1H-pyrrolo[2,3-b]pyridine hydrochloride] | – | – | > 10
9 | CN1CC(c2c[nH]c3ncccc23)=CC(C)(C)C1 [Compound 108, 3-(1,5,5-trimethyl-1,2,5,6-tetrahydropyridin-3-yl)-1H-pyrrolo[2,3-b]pyridine hydrochloride] | – | – | > 10
10 | N#CC1C=C(c2c[nH]c3ncccc23)CNC1 (stereo not drawn) [Compound 132, 5-(1H-pyrrolo[2,3-b]pyridin-3-yl)-1,2,3,6-tetrahydropyridine-3-carbonitrile] | – | – | > 10
11 | C1=C(c2c[nH]c3ncccc23)C2CC1CN2 (stereo not drawn) [Compound 134] | < 50 | E | –
12 | CN1C2CC=C(c3c[nH]c4ncccc34)C1CC2 (stereo not drawn) [Compound 141, 3-(8-methyl-8-azabicyclo[3.2.1]oct-2-en-2-yl)-1H-pyrrolo[2,3-b]pyridine] | – | – | > 10
13 | CCN1CC(c2c[nH]c3ncccc23)=CC2(CC2)C1 [Compound 144, 3-(5-ethyl-5-azaspiro[2.5]oct-7-en-7-yl)-1H-pyrrolo[2,3-b]pyridine] | 75 to 90 | – | 1 to 10
14 | C1=C(c2c[nH]c3ncccc23)CNCC12CCC2 [Compound 145, 3-(6-azaspiro[3.5]non-8-en-8-yl)-1H-pyrrolo[2,3-b]pyridine] | < 50 | – | 1 to 10
15 | CN1CC(c2c[nH]c3ncccc23)=CC2(CCC2)C1 [Compound 146, 3-(6-methyl-6-azaspiro[3.5]non-8-en-8-yl)-1H-pyrrolo[2,3-b]pyridine dihydrochloride] | 50 to 75 | – | 0.1 to 1
16 | C1=C(c2c[nH]c3ncccc23)C2(CC2)NCC1 [Compound 147, 3-(4-azaspiro[2.5]oct-7-en-8-yl)-1H-pyrrolo[2,3-b]pyridine hydrochloride] | > 90 | – | 1 to 10
17 | CC1(C)CC=C(c2c[nH]c3ncccc23)CN1 [Compound 148, 3-(6,6-dimethyl-1,2,5,6-tetrahydropyridin-3-yl)-1H-pyrrolo[2,3-b]pyridine hydrochloride] | < 50 | E | –
18 | CC1(C)NCCC=C1c1c[nH]c2ncccc12 [Compound 149, 3-(2,2-dimethyl-1,2,5,6-tetrahydropyridin-3-yl)-1H-pyrrolo[2,3-b]pyridine] | < 50 | E | –
19 | C1=C(c2nsc3ccccc23)CNCC1 [Compound 160, 3-(1,2,5,6-tetrahydropyridin-3-yl)benzo[d]isothiazole] | > 90 | – | < 0.1
